ChEMBL document CHEMBL4382258, “Design and Optimization of Sulfone Pyrrolidine Sulfonamide Antagonists of Transient Receptor Potential Vanilloid-4 with in Vivo Activity in a Pulmonary Edema Model” (J Med Chem, 2018)

Legend:
[1] = Clearance in Sprague-Dawley rat at 1 mg/kg, iv administered as 30 mins infusion by LC/MS/MS analysis; assay type: ADME, organism-based; conditions: in vivo
[2] = MRT in Sprague-Dawley rat at 1 mg/kg, iv or 2 mg/kg, po by LC/MS/MS analysis; assay type: ADME, organism-based; conditions: in vivo
[3] = Oral bioavailability in Sprague-Dawley rat at 2 mg/kg by LC/MS/MS analysis; assay type: ADME, organism-based; conditions: in vivo
[4] = Permeability of the compound by PAMPA; assay type: ADME; conditions: read-out: permeability
[5] = target: Transient receptor potential cation channel subfamily V member 1 (Homo sapiens, UniProt Q8NER1); assay: Antagonist activity at TRPV1 (unknown origin)
Sequence of Transient receptor potential cation channel subfamily V member 1 (Q8NER1 whole entry): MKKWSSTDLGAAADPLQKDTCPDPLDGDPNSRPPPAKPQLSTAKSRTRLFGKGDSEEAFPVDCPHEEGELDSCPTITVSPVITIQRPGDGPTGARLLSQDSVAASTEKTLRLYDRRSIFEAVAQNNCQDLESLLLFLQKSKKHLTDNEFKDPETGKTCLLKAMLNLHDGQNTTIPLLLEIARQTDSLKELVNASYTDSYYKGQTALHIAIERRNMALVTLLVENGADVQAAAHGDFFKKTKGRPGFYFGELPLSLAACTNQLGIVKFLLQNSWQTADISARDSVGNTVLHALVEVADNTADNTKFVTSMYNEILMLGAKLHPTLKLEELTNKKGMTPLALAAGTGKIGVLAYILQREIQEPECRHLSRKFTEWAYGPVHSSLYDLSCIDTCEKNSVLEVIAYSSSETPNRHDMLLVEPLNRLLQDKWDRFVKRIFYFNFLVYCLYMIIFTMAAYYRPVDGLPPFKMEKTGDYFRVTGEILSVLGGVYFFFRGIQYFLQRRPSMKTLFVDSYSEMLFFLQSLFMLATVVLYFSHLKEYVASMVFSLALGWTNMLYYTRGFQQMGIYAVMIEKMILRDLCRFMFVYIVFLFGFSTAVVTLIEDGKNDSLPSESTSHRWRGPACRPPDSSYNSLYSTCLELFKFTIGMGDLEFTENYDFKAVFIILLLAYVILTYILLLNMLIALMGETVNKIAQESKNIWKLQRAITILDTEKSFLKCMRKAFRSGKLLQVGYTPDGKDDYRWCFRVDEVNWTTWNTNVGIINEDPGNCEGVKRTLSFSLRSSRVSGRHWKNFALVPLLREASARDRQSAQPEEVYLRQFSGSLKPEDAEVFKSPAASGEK

[6] = target: Transient receptor potential cation channel subfamily M member 2 (Homo sapiens, UniProt O94759); assay: Antagonist activity at TRPM2 (unknown origin)
Sequence of Transient receptor potential cation channel subfamily M member 2 (O94759 whole entry): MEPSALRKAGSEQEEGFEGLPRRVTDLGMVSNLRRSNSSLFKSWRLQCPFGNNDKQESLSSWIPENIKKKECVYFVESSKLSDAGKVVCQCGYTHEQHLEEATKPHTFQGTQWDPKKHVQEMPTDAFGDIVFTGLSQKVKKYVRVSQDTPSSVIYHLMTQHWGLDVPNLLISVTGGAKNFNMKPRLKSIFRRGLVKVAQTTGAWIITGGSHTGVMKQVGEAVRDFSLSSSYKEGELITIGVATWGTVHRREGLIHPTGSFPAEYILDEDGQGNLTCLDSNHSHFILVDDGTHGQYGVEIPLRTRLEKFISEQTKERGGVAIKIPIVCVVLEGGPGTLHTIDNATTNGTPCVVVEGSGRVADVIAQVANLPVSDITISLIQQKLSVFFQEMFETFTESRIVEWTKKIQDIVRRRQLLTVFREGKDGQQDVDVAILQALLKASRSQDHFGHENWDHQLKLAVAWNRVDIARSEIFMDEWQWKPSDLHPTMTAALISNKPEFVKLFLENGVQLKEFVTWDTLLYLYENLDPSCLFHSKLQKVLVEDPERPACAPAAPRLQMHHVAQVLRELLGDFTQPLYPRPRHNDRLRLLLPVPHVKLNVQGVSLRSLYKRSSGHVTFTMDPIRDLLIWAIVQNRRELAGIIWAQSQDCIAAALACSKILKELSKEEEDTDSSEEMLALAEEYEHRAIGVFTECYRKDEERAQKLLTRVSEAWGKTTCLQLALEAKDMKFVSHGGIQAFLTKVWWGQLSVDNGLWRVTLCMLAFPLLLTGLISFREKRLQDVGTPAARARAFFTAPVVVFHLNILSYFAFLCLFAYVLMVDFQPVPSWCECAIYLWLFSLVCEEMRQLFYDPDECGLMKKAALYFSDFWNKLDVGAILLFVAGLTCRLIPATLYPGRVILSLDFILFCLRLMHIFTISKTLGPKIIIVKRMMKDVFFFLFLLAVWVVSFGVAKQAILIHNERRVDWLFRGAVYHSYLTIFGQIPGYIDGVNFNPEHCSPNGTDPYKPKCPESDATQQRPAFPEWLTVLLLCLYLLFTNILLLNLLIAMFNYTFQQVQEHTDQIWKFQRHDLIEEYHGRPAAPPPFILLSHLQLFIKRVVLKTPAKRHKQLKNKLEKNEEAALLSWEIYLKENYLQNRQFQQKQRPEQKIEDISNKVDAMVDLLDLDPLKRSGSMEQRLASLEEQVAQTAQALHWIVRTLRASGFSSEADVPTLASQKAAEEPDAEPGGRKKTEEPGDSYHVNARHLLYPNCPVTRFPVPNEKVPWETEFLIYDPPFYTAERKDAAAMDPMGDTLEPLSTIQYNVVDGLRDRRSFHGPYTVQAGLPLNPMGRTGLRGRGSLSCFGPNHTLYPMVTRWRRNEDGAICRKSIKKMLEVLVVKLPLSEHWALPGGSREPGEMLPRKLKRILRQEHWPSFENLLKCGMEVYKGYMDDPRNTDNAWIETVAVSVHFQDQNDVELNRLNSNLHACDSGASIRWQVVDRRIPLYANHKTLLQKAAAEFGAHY

[7] = target: Transient receptor potential cation channel subfamily V member 4 (Rattus norvegicus, UniProt Q9ERZ8); assay: Antagonist activity at rat TRPV4 expressed in BHK/AC9 cells assessed as inhibition of GSK634775-induced […] pre-incubated for 10 mins followed by agonist addition by Fluo-4-AM dye-based FLIPR assay; assay type: cell-based
Sequence of Transient receptor potential cation channel subfamily V member 4 (Q9ERZ8 whole entry): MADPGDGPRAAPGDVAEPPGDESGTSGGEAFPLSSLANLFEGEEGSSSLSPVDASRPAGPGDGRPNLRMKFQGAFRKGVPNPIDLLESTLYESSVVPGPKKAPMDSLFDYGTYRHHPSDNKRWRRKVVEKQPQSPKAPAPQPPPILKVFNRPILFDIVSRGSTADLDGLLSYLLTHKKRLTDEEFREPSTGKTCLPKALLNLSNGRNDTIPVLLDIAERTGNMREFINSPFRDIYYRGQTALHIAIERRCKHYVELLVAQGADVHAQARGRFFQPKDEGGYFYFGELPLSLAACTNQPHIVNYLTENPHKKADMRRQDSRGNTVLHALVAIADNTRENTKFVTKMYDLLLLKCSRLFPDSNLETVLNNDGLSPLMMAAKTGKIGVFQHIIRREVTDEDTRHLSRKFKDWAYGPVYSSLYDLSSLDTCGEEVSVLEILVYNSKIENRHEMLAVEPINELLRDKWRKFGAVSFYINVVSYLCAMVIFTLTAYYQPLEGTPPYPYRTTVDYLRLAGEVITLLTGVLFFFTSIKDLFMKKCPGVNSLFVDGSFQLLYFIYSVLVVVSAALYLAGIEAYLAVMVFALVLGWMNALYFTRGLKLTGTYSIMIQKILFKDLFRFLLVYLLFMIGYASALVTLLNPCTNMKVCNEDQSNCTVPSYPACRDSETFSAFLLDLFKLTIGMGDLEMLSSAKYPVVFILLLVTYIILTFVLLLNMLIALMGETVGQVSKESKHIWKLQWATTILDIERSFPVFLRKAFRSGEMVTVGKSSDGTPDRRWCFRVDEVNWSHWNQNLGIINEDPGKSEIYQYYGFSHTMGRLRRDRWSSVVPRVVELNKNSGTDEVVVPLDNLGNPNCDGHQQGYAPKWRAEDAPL

[8] = AUC (0 to t) in rat at 2.4 mg/kg, po; assay type: ADME, organism-based; conditions: in vivo
[9] = AUC (0 to t) in dog at 0.9 mg/kg, po; assay type: ADME, organism-based, Canis lupus familiaris; conditions: in vivo
[10] = Dose normalized AUC (0 to t) in rat at 2.4 mg/kg, po; assay type: ADME, organism-based; conditions: in vivo
[11] = Dose normalized AUC (0 to t) in rat at 98 mg/kg, po; assay type: ADME, organism-based; conditions: in vivo
[12] = Plasma concentration in Sprague-Dawley rat heart failure-induced pulmonary edema model at 0.07 ug/kg, iv bolus loading dose followed by 0.8 ug/kg/min, iv continuous infusion dose for 60 mins; assay type: ADME, organism-based; conditions: 7e-05 mg/kg
[13] = Plasma concentration in Sprague-Dawley rat heart failure-induced pulmonary edema model at 0.21 ug/kg, iv bolus loading dose followed by 2.3 ug/kg/min, iv continuous infusion dose for 60 mins; assay type: ADME, organism-based

- clearance [1]: 49 mL/min/kg
- MRT [2]: 1.6 h
- bioavailability [3]: 100%
- Papp [4]: 35 ×10⁻⁶ cm/s
- IC50 [5]: > 30 µM
- IC50 [6]: > 30 µM
- IC50 [7]: 0.004 µM
- AUC(0-t) [8]: 1100 ng·h/mL
- AUC(0-t) [9]: 2500 ng·h/mL
- AUCt/dose [10]: 0.5 kg·h/L
- AUCt/dose [11]: 0.4 kg·h/L
- concentration at 1 h [12]: 52 nM
- concentration at 1 h [13]: 152 nM
Compound: N#Cc1ccc(S(=O)(=O)N2C[C@H](S(=O)(=O)c3ccc(Cl)cc3)[C@](O)(CO)C2)c(Cl)c1
